Source: patent publication US12358943B1, “Method of synthesizing testosterone-based thiazolidinone derivatives” (IMAM MOHAMMAD IBN SAUD ISLAMIC UNIVERSITY, priority 2025, dated 2025)

Assays:
Assay type in all cases: cell-based
[1] = tested on: Escherichia coli ATCC 25933; assay: Disk diffusion agar antimicrobial activity, E. coli; conditions: 25 mg/ml, 37° C. for 24 hours, mean values; for zone of inhibition at 25000 µg/mL: Escherichia coli, ATCC25933, 24 h, read-out: Bacterial and fungal growth inhibition zone diameter (mm), E. coli
Method: (§1) As used herein, “inhibition zone diameter” refers to a measurement that indicates how effective an antimicrobial is against a bacterium. The diameter of the zone of inhibition can be used to determine the level of sensitivity of the bacterium to the antimicrobial. In laboratory testing, such as the disk diffusion method (Kirby-Bauer test), a paper disk impregnated with the antimicrobial agent is placed on an agar plate inoculated with the microorganism. After incubation, the diameter of the clear zone (inhibition zone) around the disk is measured.
(§2) The reaction conditions and mechanisms are described in subsequent examples. The successful fabrication of the testosterone-based thiazolidinone derivatives was confirmed by different analytical techniques. The antimicrobial activity of newly prepared testosterone-based thiazolidinone derivatives was evaluated against various microorganisms, including Staphylococcus aureus ATCC 6538-P, Escherichia coli ATCC 25933, Candida albicans ATCC 10231, and Aspergillus niger NRRL-A326.
(§3) The antimicrobial activity of the synthesized testosterone-based thiazolidinone derivatives (compound (I), compound (II), and compound (III)) were assessed utilizing the disk diffusion agar methodology. Four representative microbial strains were selected for this study: Staphylococcus aureus ATCC 6538-P (Gram-positive), Escherichia coli ATCC 25933 (Gram-negative), Candida albicans ATCC 10231, and Aspergillus niger NRRL-A326. Nutrient agar plates were uniformly inoculated with 0.1 mL of a cell suspension at a density of […] to 10^6 cells/mL for both bacterial and yeast cultures. Following inoculation, samples were introduced onto the agar plates. The plates were subsequently incubated at refrigeration temperature (4° C.) for 2 to 4 hours to enhance the diffusion of the antimicrobial agents. Thereafter, the plates were incubated at 37° C. for 24 hours for bacterial growth and at 30° C. for 48 hours for yeast and fungal growth, maintaining an upright orientation to maximize the growth of the microorganisms. The antimicrobial activity of the testosterone-based thiazolidinone derivatives was quantified by measuring the diameter of the zone of inhibition, which was reported in millimeters (mm). The concentration of the tested testosterone-based thiazolidinone derivatives was 25 mg/ml. This experimental protocol was replicated multiple times, and the mean values of the observed readings were recorded.

[2] = tested on: Aspergillus niger NRRL-A326; assay: Disk diffusion agar antimicrobial activity, A. niger; conditions: 30° C. for 48 hours, mean values; for Bacterial and fungal growth inhibition zone diameter (mm), A. niger: 25 mg/ml; for zone of inhibition at 25000 µg/mL: Aspergillus niger, NRRLA326, 25 mg/ml, read-out: Bacterial and fungal growth inhibition zone diameter (mm), A. niger
Method: as §1, §2, §3

[3] = tested on: Staphylococcus aureus ATCC 6538-P; assay: Disk diffusion agar antimicrobial activity, S. aureus; conditions: 25 mg/ml, 37° C. for 24 hours, mean values; for zone of inhibition at 25000 µg/mL: Staphylococcus aureus, ATCC6538, 24 h, read-out: Bacterial and fungal growth inhibition zone diameter (mm), S. aureus
Method: as §1, §2, §3

[4] = tested on: Candida albicans ATCC 10231; assay: Disk diffusion agar antimicrobial activity, C. albicans; conditions: 25 mg/ml, 30° C. for 48 hours, mean values; for zone of inhibition at 25000 µg/mL: Candida albicans, ATCC10231, 48 h, read-out: Bacterial and fungal growth inhibition zone diameter (mm), C. albicans
Method: as §1, §2, §3

[5] = listed as compound III where Ar is 4-ClC6H4
[6] = listed as compound III where Ar is CH2C6H4
[7] = listed as compound III where Ar is C6H5

For `CC12CCC(=NN=C3NC(=O)C(CC(=O)Nc4ccc(Cl)cc4)S3)C=C1CCC1C2CCC2(C)C(O)CCC12` (centres unmarked) [Compound III Ar = 4-ClC6H4], the “Bacterial and fungal growth inhibition zone diameter (mm), E. coli” value [1] was 39 mm, the “Bacterial and fungal growth inhibition zone diameter (mm), E. coli” value [1, 5] was “at least 39 mm” and the “Bacterial and fungal growth inhibition zone diameter (mm), A. niger” value [2] was 43 mm. The “Bacterial and fungal growth inhibition zone diameter (mm), A. niger” value [2, 5] was “at least 43 mm”, the “Bacterial and fungal growth inhibition zone diameter (mm), S. aureus” value [3] was 38 mm and the “Bacterial and fungal growth inhibition zone diameter (mm), S. aureus” value [3, 5] was “at least 38 mm”. The “Bacterial and fungal growth inhibition zone diameter (mm), C. albicans” value [4] was 41 mm and the “Bacterial and fungal growth inhibition zone diameter (mm), C. albicans” value [4, 5] was “at least 41 mm”.

In the case of `CC12CCC(=NN=C3NC(=O)C(CC(=O)NCc4ccccc4)S3)C=C1CCC1C2CCC2(C)C(O)CCC12` (centres unmarked) [Compound III Ar = CH2C6H4], the “Bacterial and fungal growth inhibition zone diameter (mm), E. coli” value [1] is reported as 17 mm, the “Bacterial and fungal growth inhibition zone diameter (mm), E. coli” value [1, 6] is reported as “at least 17 mm” and the “Bacterial and fungal growth inhibition zone diameter (mm), A. niger” value [2] is reported as 44 mm. The “Bacterial and fungal growth inhibition zone diameter (mm), A. niger” value [2, 6] was “at least 44 mm”, the “Bacterial and fungal growth inhibition zone diameter (mm), S. aureus” value [3] was 19 mm and the “Bacterial and fungal growth inhibition zone diameter (mm), S. aureus” value [3, 6] was “at least 19 mm”. The “Bacterial and fungal growth inhibition zone diameter (mm), C. albicans” value [4] was 21 mm and the “Bacterial and fungal growth inhibition zone diameter (mm), C. albicans” value [4, 6] was “at least 21 mm”.

With `CC12CCC(=NN=C3NC(=O)C(CC(=O)Nc4ccccc4)S3)C=C1CCC1C2CCC2(C)C(O)CCC12` (centres unmarked) [Compound III Ar = C6H5] the “Bacterial and fungal growth inhibition zone diameter (mm), E. coli” value [1] was 32 mm, the “Bacterial and fungal growth inhibition zone diameter (mm), E. coli” value [1, 7] was “at least 32 mm” and the “Bacterial and fungal growth inhibition zone diameter (mm), A. niger” value [2] was 37 mm. The “Bacterial and fungal growth inhibition zone diameter (mm), A. niger” value [2, 7] was “at least 37 mm”, the “Bacterial and fungal growth inhibition zone diameter (mm), S. aureus” value [3] was 35 mm and the “Bacterial and fungal growth inhibition zone diameter (mm), S. aureus” value [3, 7] was “at least 35 mm”. For the same compound, the “Bacterial and fungal growth inhibition zone diameter (mm), C. albicans” value [4] was 36 mm and the “Bacterial and fungal growth inhibition zone diameter (mm), C. albicans” value [4, 7] was “at least 36 mm”.

Work on `C[C@]12CC[C@H]3[C@@H](CCC4=C/C(=N/NC(N)=S)CC[C@@]43C)[C@@H]1CC[C@@H]2O` [Compound I] yielded a zone of inhibition at 25000 µg/mL [1] of 0 mm, a zone of inhibition at 25000 µg/mL [2] of 0 mm and a zone of inhibition at 25000 µg/mL [3] of 0 mm. It also gave a zone of inhibition at 25000 µg/mL [4] of 0 mm.

In the case of `COC(=O)/C=C1/S/C(=N\N=C2\C=C3CC[C@H]4[C@@H]5CC[C@H](O)[C@@]5(C)CC[C@@H]4[C@@]3(C)CC2)NC1=O` [Compound II], the “Bacterial and fungal growth inhibition zone diameter (mm), E. coli” value [1] is reported as 26 mm, the zone of inhibition at 25000 µg/mL [1] is reported as at least 26 mm and the zone of inhibition at 25000 µg/mL [2] is reported as 0 mm. The “Bacterial and fungal growth inhibition zone diameter (mm), S. aureus” value [3] was 29 mm, the zone of inhibition at 25000 µg/mL [3] was at least 29 mm and the “Bacterial and fungal growth inhibition zone diameter (mm), C. albicans” value [4] was 29 mm. The zone of inhibition at 25000 µg/mL [4] was at least 29 mm.
